# Entries after “also recorded” stand apart in the source; their conditions may differ. Where two headings read alike, the source gives them in different places. Positions of bridges follow the written chain, without caps; N, C: chain ends. Residues, ends and D or L forms follow the SMILES beside them.
# Assays:
# [1] = test system: M. tuberculosis H37Rv infected mice; assay type: in vivo, BALB/c mice
# [2] = test system: M. tuberculosis H37Rv; parameters: species or system BALB/c mice; conditions: mouse, in vivo
# [3] = mouse, in vivo, iv, 33 mg/kg
# [4] = test system: M. smegmatis; assay type: cell-based, Mycobacterium smegmatis mc^2155
# [5] = in vivo; conditions: male, BALB/c, mouse, iv, 33 mg/kg
# [6] = in vivo; cited from earlier work
compound,measurement,setting,value
"CC[C@H](C)[C@@H]1NC(=O)[C@H](CO)NC(=O)[C@H](CCCCN)NC(=O)[C@@H]2CSSC[C@@H](C(=O)N[C@@H](Cc3ccc(O)cc3)C(=O)O)NC(=O)[C@H](CCCCN)NC(=O)[C@@H]3CSSC[C@H](NC(=O)[C@H](CCC(N)=O)NC(=O)[C@H]([C@@H](C)CC)NC(=O)[C@H](CC(=O)O)NC(=O)[C@H](CC(=O)O)NC(=O)[C@H](CCC(=O)O)NC(=O)[C@H](CO)NC(=O)[C@H](Cc4c[nH]c5ccccc45)NC(=O)[C@@H]4CCCN4C(=O)CNC(=O)[C@H](CC(N)=O)NC(=O)[C@@H](NC(=O)CNC(=O)[C@H](Cc4ccccc4)NC(=O)CN)CSSC[C@H](NC(=O)[C@H](Cc4ccc(O)cc4)NC(=O)CNC(=O)CNC(=O)[C@H](CCCCN)NC(=O)[C@H](Cc4ccc(O)cc4)NC(=O)CNC(=O)[C@H](CCCCN)NC1=O)C(=O)N[C@@H](C)C(=O)N[C@@H](CCCNC(=N)N)C(=O)NCC(=O)NCC(=O)N[C@@H](Cc1ccccc1)C(=O)N[C@@H](C(C)C)C(=O)N3)C(=O)N[C@@H](Cc1c[nH]cn1)C(=O)N[C@@H](CC(N)=O)C(=O)N[C@@H](Cc1c[nH]cn1)C(=O)N2 [NZX] (H-GFGCNGPWSEDDIQCHNHCKSIKGYKGGYCARGGFVCKCY-OH; disulfide 4-30, 15-37, 19-39)","Lung tissue destruction / inflammatory score (perivascular, peribronchiolar and alveolar infiltration)","[1]; mouse, in vivo",decreased tissue destruction
same,Bacterial (CFU) reduction compared to the untreated control,[2],75%
same,NZX in the circulation after 240 min,[3],not detected
same,Frequency at which resistant mutants emerge,[4],< 10^–9
same,Resistant mutants detected,[4],did not detect any resistant mutants
same,Cmax,[5],61 µg/mL
same,half-life,[5],42 min
CC[C@@H](CO)NCCN[C@@H](CC)CO [ethambutol],"Lung tissue destruction / inflammatory score (perivascular, peribronchiolar and alveolar infiltration)",[1]; n = 4–5,more severe tissue destruction
same,Bacterial (CFU) reduction compared to the untreated control,[2],79%
NNC(=O)c1ccncc1 [isoniazid],"Lung tissue destruction / inflammatory score (perivascular, peribronchiolar and alveolar infiltration)",[1]; n = 4–5,decreased tissue destruction; also recorded: preserved alveolar structure best
same,Bacterial (CFU) reduction compared to the untreated control,[2],92%
plectasin,Terminal serum elimination half-life,[6],51 min

# — paper PMC7892554 (Scientific Reports, 2021)
